Values joined by “and” are separate entries in the source; they are usually repeats but may differ in a detail not shown here. Equal values may be shown once. Toxic doses and inconclusive results are not listed. Rule for the calls: active = survival T/C of 150% or more; inactive = T/C below 125% in these data.
Test system: P388 leukemia ip, CD2F1 mice, survival T/C
Test: NCI In Vivo Anticancer Drug Screen. Data for tumor model P388 Leukemia (intraperitoneal) in CD2F1 (CDF1) mice
Details: endpoint: median survival time, higher = longer survival
Method in brief: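 Mice carrying the transplanted tumor received test compound or vehicle. Survival was recorded in each group, and the value is the treated-group measurement divided by that of the vehicle-treated control group.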

[1] = dose: 12.5 mg/kg/injection, schedule: Q01DX009 (ip), vehicle: saline
[2] = dose: 25.0 mg/kg/injection, schedule: Q01DX009 (ip), vehicle: saline
[3] = dose: 50.0 mg/kg/injection, schedule: Q01DX009 (ip), vehicle: saline
[4] = dose: 50.0 mg/kg/injection, schedule: Q04DX003 (ip), vehicle: saline
[5] = dose: 100.0 mg/kg/injection, schedule: Q04DX003 (ip), vehicle: saline
[6] = dose: 6.25 mg/kg/injection, schedule: Q01DX005 (ip), vehicle: saline with Tween-80
[7] = dose: 50.0 mg/kg/injection, schedule: Q01DX005 (ip), vehicle: saline with Tween-80
[8] = dose: 100.0 mg/kg/injection, schedule: Q01DX005 (ip), vehicle: saline with Tween-80
[9] = dose: 200.0 mg/kg/injection, schedule: Q01DX005 (ip), vehicle: saline with Tween-80
[10] = dose: 60.0 mg/kg/injection, schedule: Q01DX005 (ip), vehicle: saline with Tween-80
[11] = dose: 120.0 mg/kg/injection, schedule: Q01DX005 (ip), vehicle: saline with Tween-80
[12] = dose: 100.0 mg/kg/injection, schedule: Q04DX002 (ip), vehicle: Klucel (hydroxypropylcellulose) (HPC)

Measured: T/C

CCCC1CN2CCc3cc(OC)c(OC)cc3C2C/C1=C/C(=O)OCC (configuration not stated)
inactive: [1] 90 % of control | [2] 92 % of control | dose: 50.0 mg/kg/injection, schedule: Q01DX009 (ip), vehicle: saline with Tween-80 90 % of control | [3] 96 % of control | dose: 200.0 mg/kg/injection, schedule: Q01DX009 (ip), vehicle: saline with Tween-80 89 % of control

CN(C)CCOC(c1ccccc1)c1ccccc1
inactive: dose: 25.0 mg/kg/injection, schedule: Q04DX003 (ip), vehicle: saline 100 % of control | [4] 100 % of control | [5] 108 % of control

COC1C(CO)OC(n2cnc3c(=S)nc(N)[nH]c32)C1O (configuration not stated)
inactive: dose: 100.0 mg/kg/injection, schedule: Q01DX009 (ip), vehicle: saline with Tween-80 122 % of control | dose: 264.0 mg/kg/injection, schedule: Q04DX003 (ip), vehicle: saline with Tween-80 109 % of control

CN1CCc2cc3c(cc2[C@H]1[C@@H]1OC(=O)c2c1ccc1c2OCO1)OCO3
inactive: [6] 101 % of control | dose: 12.5 mg/kg/injection, schedule: Q01DX005 (ip), vehicle: saline with Tween-80 97 % of control

O=C(/C=C\c1ccc(O)c(O)c1)O[C@@H]1C[C@](O)(C(=O)O)C[C@@H](O)[C@H]1O
inactive: [4] 100 % of control | [5] 100 % of control | dose: 200.0 mg/kg/injection, schedule: Q04DX003 (ip), vehicle: saline 105 % of control

Cc1ccccc1NP1(=O)OCCCN1Cc1ccc(Cl)c(Cl)c1 (configuration not stated)
inactive: [7] 100 % of control | [8] 98 % of control | [9] 93 % of control

Clc1nc(C(Cl)Cl)nc2ccccc12
inactive: dose: 30.0 mg/kg/injection, schedule: Q01DX005 (ip), vehicle: saline with Tween-80 106 % of control | [10] 110 % of control and 111 % of control | [11] 111 % of control and 113 % of control

O=[N+]([O-])c1ccccc1N=Nc1c(-c2ccccc2)nn(C(=S)N2CCOCC2)c1-c1ccccc1
inactive: dose: 1.5 mg/kg/injection, schedule: Q01DX005 (ip), vehicle: saline with Tween-80 102 % of control | dose: 3.0 mg/kg/injection, schedule: Q01DX005 (ip), vehicle: saline with Tween-80 96 % of control | dose: 6.0 mg/kg/injection, schedule: Q01DX005 (ip), vehicle: saline with Tween-80 87 % of control | [6] 92 % of control | [8] 86 % of control | [9] 95 % of control

Cc1cc(=O)n2c(-c3ccc(Cl)cc3)csc2n1
inactive: dose: 25.0 mg/kg/injection, schedule: Q04DX002 (ip), vehicle: Klucel (hydroxypropylcellulose) (HPC) 90 % of control | dose: 50.0 mg/kg/injection, schedule: Q04DX002 (ip), vehicle: Klucel (hydroxypropylcellulose) (HPC) 101 % of control | [12] 102 % of control

CCNNC(=O)[C@@H]1[C@H](c2cc(OC)c(OC)c(OC)c2)c2cc3c(cc2[C@H](O)[C@H]1CO)OCO3
inactive: dose: 100.0 mg/kg/injection, schedule: Q04DX003 (ip), vehicle: saline with Tween-80 109 % of control | dose: 200.0 mg/kg/injection, schedule: Q04DX003 (ip), vehicle: saline with Tween-80 113 % of control | dose: 400.0 mg/kg/injection, schedule: Q04DX003 (ip), vehicle: saline with Tween-80 104 % of control

CCCCN1C(=O)/C(=C/c2ccccc2OC)SC1=S
inactive: dose: 50.0 mg/kg/injection, schedule: Q01DX005 (ip), vehicle: Klucel (hydroxypropylcellulose) (HPC) 98 % of control | dose: 100.0 mg/kg/injection, schedule: Q01DX005 (ip), vehicle: Klucel (hydroxypropylcellulose) (HPC) 94 % of control

CCCCCC(C1SC(=S)NC1=O)C1SC(=S)NC1=O (configuration not stated)
inactive: [7] 90 % of control | [8] 106 % of control

O=C1SC/C(=N\N=c2/scc(-c3ccccc3)n2-c2ccccc2)N1Cc1ccccc1
inactive: [12] 90 % of control | dose: 200.0 mg/kg/injection, schedule: Q04DX002 (ip), vehicle: Klucel (hydroxypropylcellulose) (HPC) 91 % of control | dose: 400.0 mg/kg/injection, schedule: Q04DX002 (ip), vehicle: Klucel (hydroxypropylcellulose) (HPC) 88 % of control

CCN1C(NN)=NS(=O)(=O)c2ccccc21
inactive: [10] 103 % of control | [11] 106 % of control | dose: 240.0 mg/kg/injection, schedule: Q01DX005 (ip), vehicle: saline with Tween-80 94 % of control

CCCCC(O)/C=C(C)/C=C/C=C/C(=O)N1CCCC1=O (configuration not stated)
inactive: dose: 25.0 mg/kg/injection, schedule: Q01DX009 (ip), vehicle: Klucel (hydroxypropylcellulose) (HPC) 113 % of control | dose: 50.0 mg/kg/injection, schedule: Q01DX009 (ip), vehicle: Klucel (hydroxypropylcellulose) (HPC) 113 % of control | dose: 100.0 mg/kg/injection, schedule: Q01DX009 (ip), vehicle: Klucel (hydroxypropylcellulose) (HPC) 110 % of control | dose: 200.0 mg/kg/injection, schedule: Q01DX009 (ip), vehicle: Klucel (hydroxypropylcellulose) (HPC) 110 % of control | dose: 400.0 mg/kg/injection, schedule: Q01DX009 (ip), vehicle: Klucel (hydroxypropylcellulose) (HPC) 118 % of control

COC1=CCC2=C(CC[C@H]3[C@H]2CCP3(C)=S)C1 (some centres not stated)
inactive: dose: 50.0 mg/kg/injection, schedule: Q01DX005 (ip), vehicle: saline + Tween-80 + alcohol 115 % of control | dose: 100.0 mg/kg/injection, schedule: Q01DX005 (ip), vehicle: saline + Tween-80 + alcohol 106 % of control | dose: 200.0 mg/kg/injection, schedule: Q01DX005 (ip), vehicle: saline + Tween-80 + alcohol 101 % of control

CCCCCCCCOS(=O)(=O)c1ccc([N+](C)(C)C)cc1
inactive: [1] 103 % of control | [2] 105 % of control | [3] 110 % of control

CCCCC(CC)(CC(=N)C(C)(C)C)c1ccccc1 (configuration not stated)
inactive: dose: 50.0 mg/kg/injection, schedule: Q01DX009 (ip), vehicle: saline + alcohol 111 % of control | dose: 100.0 mg/kg/injection, schedule: Q01DX009 (ip), vehicle: saline + alcohol 103 % of control | dose: 200.0 mg/kg/injection, schedule: Q01DX009 (ip), vehicle: saline + alcohol 119 % of control

— PubChem BioAssay AID330 (DTP/NCI, 2004)
